In ChEMBL document CHEMBL5715954, “Silencing c-Myc translation as a therapeutic strategy through targeting PI3Kδ and CK1ε in hematological malignancies” (Blood, 2017):

Legend:
Set-up in all cases: scale not given: the % may be the effect or the level left
[1] = target: Calcium/calmodulin-dependent protein kinase type II subunit gamma (Homo sapiens) (UniProt Q13555); assay: Inhibition of human CAMK2g assessed as enzyme activity at 1 uM using KKLNRTLSFAEPG as substrate preincubated for 20 mins followed by [gamma-33P]-ATP addition and measured after 120 mins by radiometric Hot-SpotSM Kinase assay relative to control
Calcium/calmodulin-dependent protein kinase type II subunit gamma (Homo sapiens), sequence (Q13555 whole entry): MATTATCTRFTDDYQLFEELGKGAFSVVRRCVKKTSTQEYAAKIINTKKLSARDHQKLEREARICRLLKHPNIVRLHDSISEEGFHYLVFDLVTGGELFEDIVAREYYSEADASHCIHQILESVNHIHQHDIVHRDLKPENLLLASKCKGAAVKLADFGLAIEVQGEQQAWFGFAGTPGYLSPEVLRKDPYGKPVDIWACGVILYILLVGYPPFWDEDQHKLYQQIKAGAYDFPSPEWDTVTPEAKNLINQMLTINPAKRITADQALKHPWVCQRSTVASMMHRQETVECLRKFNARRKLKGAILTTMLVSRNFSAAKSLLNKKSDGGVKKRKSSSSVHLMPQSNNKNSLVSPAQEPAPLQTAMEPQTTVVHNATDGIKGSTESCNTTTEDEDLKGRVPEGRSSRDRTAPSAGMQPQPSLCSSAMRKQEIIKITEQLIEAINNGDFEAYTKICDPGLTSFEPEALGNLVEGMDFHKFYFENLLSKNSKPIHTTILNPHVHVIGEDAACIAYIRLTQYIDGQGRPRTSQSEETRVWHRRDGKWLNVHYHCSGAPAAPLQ

[2] = target: Tyrosine-protein kinase BTK (Homo sapiens) (UniProt Q06187); assay: Inhibition of human BTK assessed as enzyme activity at 1 uM using poly[Glu:Tyr] (4:1) as substrate preincubated for 20 mins followed by [gamma-33P]-ATP addition and measured after 120 mins by radiometric Hot-SpotSM Kinase assay relative to control
Tyrosine-protein kinase BTK (Homo sapiens), sequence (Q06187 whole entry): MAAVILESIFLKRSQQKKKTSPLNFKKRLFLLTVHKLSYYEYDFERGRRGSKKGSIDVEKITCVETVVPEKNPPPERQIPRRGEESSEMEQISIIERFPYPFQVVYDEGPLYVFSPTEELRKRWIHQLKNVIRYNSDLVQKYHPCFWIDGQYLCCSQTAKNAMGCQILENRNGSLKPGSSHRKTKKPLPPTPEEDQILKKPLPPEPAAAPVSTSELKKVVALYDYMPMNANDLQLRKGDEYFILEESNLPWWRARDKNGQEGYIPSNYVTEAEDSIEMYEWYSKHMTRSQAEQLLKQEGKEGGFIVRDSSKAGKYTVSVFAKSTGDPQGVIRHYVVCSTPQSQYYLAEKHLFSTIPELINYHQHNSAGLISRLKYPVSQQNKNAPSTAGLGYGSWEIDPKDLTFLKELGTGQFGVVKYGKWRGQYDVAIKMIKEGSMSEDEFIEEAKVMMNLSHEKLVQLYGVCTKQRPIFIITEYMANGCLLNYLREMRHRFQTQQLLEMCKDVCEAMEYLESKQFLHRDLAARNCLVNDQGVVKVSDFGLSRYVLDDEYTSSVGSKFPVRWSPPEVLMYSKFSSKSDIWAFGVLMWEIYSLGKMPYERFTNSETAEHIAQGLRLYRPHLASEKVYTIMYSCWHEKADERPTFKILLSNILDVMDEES

[3] = target: T1, Mitogen-activated protein kinase kinase kinase 5 (Homo sapiens) (UniProt Q99683); assay: Inhibition of human ASK1 assessed as enzyme activity at 1 uM using myelin basic protein as substrate preincubated for 20 mins followed by [gamma-33P]-ATP addition and measured after 120 mins by radiometric Hot-SpotSM Kinase assay relative to control
T1 sequence (whole entry): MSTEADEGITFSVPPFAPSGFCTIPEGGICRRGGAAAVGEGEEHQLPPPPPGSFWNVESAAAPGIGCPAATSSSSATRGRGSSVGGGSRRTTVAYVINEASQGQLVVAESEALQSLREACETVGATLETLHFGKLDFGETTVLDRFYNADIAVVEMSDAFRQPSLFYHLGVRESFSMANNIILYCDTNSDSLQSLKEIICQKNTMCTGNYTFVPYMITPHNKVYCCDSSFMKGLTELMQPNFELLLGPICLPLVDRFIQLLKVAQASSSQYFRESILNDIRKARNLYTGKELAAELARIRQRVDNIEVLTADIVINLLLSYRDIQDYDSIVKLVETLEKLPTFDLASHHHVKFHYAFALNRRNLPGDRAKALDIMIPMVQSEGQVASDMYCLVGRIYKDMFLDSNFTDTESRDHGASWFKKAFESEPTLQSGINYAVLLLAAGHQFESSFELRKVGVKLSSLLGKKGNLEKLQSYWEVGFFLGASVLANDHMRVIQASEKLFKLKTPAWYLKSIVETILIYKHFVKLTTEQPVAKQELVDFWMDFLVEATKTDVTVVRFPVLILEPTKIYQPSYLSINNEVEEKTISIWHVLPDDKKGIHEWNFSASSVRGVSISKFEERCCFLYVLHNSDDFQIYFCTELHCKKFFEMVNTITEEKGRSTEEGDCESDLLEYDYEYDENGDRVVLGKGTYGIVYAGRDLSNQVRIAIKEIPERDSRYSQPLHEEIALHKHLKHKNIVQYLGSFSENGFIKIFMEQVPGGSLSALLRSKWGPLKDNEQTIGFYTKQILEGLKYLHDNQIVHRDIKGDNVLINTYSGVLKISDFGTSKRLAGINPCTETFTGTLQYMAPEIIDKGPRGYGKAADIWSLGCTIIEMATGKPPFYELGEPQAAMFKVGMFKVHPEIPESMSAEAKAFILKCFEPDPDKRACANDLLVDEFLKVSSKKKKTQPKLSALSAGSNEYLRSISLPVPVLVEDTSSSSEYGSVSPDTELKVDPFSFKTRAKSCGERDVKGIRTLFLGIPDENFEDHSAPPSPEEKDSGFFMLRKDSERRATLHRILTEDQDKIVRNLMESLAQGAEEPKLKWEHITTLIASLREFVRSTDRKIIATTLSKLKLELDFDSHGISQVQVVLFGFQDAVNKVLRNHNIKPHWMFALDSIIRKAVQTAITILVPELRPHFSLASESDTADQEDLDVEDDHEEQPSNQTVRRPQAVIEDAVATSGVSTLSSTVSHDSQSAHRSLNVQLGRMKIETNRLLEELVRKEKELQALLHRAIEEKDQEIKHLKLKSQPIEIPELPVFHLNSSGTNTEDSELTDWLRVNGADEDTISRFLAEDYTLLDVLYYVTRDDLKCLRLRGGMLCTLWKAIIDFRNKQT

[4] = target: Serine/threonine-protein kinase WNK2 (Homo sapiens) (UniProt Q9Y3S1); assay: Inhibition of human WNK2 assessed as enzyme activity at 1 uM using myelin basic protein as substrate preincubated for 20 mins followed by [gamma-33P]-ATP addition and measured after 120 mins by radiometric Hot-SpotSM Kinase assay relative to control
Serine/threonine-protein kinase WNK2 (Homo sapiens), sequence (Q9Y3S1 whole entry, the tested form may be a part): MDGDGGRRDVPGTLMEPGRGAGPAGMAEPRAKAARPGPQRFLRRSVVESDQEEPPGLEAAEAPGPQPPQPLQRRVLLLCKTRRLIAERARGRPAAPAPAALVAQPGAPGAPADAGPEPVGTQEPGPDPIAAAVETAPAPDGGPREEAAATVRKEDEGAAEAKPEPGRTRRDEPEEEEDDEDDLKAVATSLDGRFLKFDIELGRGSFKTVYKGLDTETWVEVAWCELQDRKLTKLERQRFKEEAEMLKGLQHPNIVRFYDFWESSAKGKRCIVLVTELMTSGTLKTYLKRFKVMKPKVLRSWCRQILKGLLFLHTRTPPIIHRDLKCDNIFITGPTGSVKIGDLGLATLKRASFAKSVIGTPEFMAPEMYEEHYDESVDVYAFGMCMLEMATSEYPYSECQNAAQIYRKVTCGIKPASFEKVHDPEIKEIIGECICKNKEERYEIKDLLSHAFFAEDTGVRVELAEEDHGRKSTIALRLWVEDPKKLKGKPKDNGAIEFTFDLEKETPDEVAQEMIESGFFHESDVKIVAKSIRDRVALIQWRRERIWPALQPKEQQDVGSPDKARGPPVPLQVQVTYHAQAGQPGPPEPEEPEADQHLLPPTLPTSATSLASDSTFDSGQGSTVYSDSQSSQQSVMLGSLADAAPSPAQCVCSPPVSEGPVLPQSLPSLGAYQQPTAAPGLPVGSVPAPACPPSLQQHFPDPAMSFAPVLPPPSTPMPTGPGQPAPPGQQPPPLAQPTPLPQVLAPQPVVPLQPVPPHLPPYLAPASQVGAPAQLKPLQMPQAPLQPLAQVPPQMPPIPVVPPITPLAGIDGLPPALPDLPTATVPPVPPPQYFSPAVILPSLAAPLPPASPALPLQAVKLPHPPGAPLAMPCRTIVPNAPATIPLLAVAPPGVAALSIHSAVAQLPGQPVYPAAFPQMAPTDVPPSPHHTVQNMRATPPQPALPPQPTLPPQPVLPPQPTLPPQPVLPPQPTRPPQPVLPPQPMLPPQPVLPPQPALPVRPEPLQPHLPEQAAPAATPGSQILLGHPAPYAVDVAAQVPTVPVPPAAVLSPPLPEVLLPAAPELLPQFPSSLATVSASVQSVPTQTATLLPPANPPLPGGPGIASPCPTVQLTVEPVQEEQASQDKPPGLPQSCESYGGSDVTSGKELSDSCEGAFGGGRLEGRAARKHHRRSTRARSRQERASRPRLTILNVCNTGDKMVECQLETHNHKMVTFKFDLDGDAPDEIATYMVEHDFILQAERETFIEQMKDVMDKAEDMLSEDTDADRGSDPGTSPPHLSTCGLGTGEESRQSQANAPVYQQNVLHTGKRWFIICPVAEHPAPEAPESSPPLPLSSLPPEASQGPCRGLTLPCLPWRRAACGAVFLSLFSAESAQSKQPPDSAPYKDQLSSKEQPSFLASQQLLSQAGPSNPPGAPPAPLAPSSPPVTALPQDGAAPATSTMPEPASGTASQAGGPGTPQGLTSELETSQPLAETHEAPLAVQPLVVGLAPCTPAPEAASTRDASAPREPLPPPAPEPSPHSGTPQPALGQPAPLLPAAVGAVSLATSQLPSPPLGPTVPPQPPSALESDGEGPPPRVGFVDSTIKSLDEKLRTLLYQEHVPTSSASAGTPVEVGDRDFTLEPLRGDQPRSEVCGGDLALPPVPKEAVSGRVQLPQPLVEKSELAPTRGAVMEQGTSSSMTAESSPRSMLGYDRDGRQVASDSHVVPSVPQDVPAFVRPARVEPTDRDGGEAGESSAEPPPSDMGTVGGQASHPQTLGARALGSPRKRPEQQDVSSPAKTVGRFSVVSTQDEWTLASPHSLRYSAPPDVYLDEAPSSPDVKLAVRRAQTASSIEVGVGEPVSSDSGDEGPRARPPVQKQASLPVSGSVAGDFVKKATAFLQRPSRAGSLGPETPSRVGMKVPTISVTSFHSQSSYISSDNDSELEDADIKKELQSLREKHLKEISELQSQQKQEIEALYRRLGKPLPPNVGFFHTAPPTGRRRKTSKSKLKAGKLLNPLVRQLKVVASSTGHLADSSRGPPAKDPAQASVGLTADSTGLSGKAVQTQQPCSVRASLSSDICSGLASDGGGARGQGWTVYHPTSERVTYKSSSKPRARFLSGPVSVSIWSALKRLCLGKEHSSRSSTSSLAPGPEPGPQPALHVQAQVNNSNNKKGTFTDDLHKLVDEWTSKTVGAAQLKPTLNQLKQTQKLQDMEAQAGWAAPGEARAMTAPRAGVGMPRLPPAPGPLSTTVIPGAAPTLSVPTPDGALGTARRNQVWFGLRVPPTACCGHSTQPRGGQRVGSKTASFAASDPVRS

[5] = target: T2, Discoidin domain-containing receptor 2 (Homo sapiens) (UniProt Q16832); assay: Inhibition of human DDR2 assessed as enzyme activity at 1 uM using KKSRGDYMTMQIG as substrate preincubated for 20 mins followed by [gamma-33P]-ATP addition and measured after 120 mins by radiometric Hot-SpotSM Kinase assay relative to control
T2 sequence (whole entry): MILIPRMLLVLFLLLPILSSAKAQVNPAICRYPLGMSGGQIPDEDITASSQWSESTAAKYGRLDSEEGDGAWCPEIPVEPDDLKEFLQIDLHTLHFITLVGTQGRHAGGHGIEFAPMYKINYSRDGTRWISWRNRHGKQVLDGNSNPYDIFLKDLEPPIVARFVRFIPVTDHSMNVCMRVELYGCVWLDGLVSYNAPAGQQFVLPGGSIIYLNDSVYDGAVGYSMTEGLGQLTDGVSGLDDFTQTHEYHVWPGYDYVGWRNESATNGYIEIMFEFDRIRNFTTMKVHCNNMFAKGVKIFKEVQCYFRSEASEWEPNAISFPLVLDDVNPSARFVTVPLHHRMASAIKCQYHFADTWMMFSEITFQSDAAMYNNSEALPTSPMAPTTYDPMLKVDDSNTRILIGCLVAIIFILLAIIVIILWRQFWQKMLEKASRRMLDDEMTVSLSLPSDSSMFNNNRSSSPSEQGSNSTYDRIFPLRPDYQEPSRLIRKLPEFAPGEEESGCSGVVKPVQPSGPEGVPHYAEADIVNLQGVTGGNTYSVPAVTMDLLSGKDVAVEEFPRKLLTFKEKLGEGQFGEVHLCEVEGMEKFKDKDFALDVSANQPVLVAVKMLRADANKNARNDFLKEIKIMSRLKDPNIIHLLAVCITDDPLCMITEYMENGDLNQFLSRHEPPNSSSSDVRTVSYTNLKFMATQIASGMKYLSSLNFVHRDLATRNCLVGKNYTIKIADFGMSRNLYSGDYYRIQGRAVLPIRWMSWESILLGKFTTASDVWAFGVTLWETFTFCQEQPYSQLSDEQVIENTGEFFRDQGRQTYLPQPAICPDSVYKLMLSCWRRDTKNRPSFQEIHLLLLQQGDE

Structure (SMILES)	Activity [1]	Activity [2]	Activity [3]	Activity [4]	Activity [5]
CC[C@H](Nc1ncnc2[nH]cnc12)c1nc2cccc(F)c2c(=O)n1-c1ccccc1	91%	97.3%	102%	92.3%	106%
CC(C)Oc1ccc(-c2nn([C@@H](C)c3oc4ccc(F)cc4c(=O)c3-c3cccc(F)c3)c3ncnc(N)c23)cc1F [UMBRALISIB]	91.5%	96.8%	98.4%	82.2%	104%
C[C@H](Nc1ncnc2nc[nH]c12)c1cc2cccc(Cl)c2c(=O)n1-c1ccccc1	92.9%	98.7%	97.7%	90.5%	110%
